This data set relates to 4T1 murine mammary carcinoma. Put plainly: Orthotopic 4T1 murine mammary carcinoma model, lung metastasis. The data set is classed as in vivo, BALB/C mice. Here is the method: 4T1 cells are cultured with RPMI-1640 culture solution, wherein the concentration of added fetal calf serum is 10%, a penicillin/streptomycin double-antibody is diluted in the culture solution based on the ratio of 1:100, and the cells are cultured in a thermostatic incubator which contains 5% CO2 and has a saturation temperature of 37° C. The cells are subjected to passage every other 2-3 days based on the ratio of 1:3-1:5. BALB/C mice are randomly divided into 7 groups, and a fourth fat pad of the breast is inoculated with 1×10^5 4 T1 cells. Then 20 mg/kg, 40 mg/kg and 80 mg/kg […] and 4 mg/kg dalteparin are injected to each group respectively. Mice were observed daily. Body weights and tumor volumes were recorded three times per week during the experiment. Breast tumors are removed after continuous administration for 12 days, and then 4 mg/kg cisplatin is […] to each group from the 13th thy, once in every four days. On the 30th day, anesthesia is conducted, the mice are sacrificed, lungs and spleens are taken out, washed and weighted. Photos were taken and lung samples were fixed in 10% neutral for metastatic nodule count and HE staining

Setting [1] is: cisplatin alone or combined with dHG10092, compared with negative control group.

`N.N.[Cl][Pt][Cl]` [Cisplatin]: the body weight entry (cisplatin 4 mg/kg, alone or in a combination) is “can cause weight reduction”. Moreover, under setting [1], the lung weight result is on record as “much lower” and the spleen weight result is given as “much lower”. Also, under “cisplatin independently or with dHG10092”, the “lung tumor area range (HE staining)” value is listed as “remarkably reduce the lung tumor area range”.

The values above are taken from US20190151350A1, “DEPOLYMERIZED HOLOTHURIAN GLYCOSAMINOGLYCAN COMPOSITION AND PREPARATION METHOD AND APPLICATION THEREOF” (Suzhou Yi-hua Biomedical Technology co., Ltd, priority 2017, published 2019).
